Data published in paper PMC4878443 (Journal of medicinal chemistry, 2015).

These molecules were tested on normal fibroblast cells WI-38 (assay: Cell growth inhibition). Settings: not given.
Format: cell-based

Structure (SMILES)	activity against growth of normal cells in words
CN1CCN(C(=O)CN[C@H]2C[C@@H]2c2ccc(-c3ccc(F)nc3)cc2)CC1 [Compound S2]	inactive

What follows are molecules tested against human LSD1 (Homo sapiens, UniProt O60341) (assay: LSD1 inhibition, mass spectrometry). Settings: not given.
Format: biochemical

Structure (SMILES)	LSD1 inhibition in words
Cc1ccc(-c2ncc(OCC3CCNCC3)cc2-c2ccc(CN3CCCCC3)cc2)cc1 [Compound 36]	almost inactive
Cc1ccc(-c2ncc(OCC3CCNCC3)cc2-c2ccc(CO)cc2)cc1 [Compound 30]	completely lose inhibitory activities
c1ccc(-c2cc(OCC3CCNCC3)cnc2-c2ccccc2)cc1 [Compound 11]	inactive
Cc1ccc(-c2ncc(OCC3CCNCC3)cc2-c2ccc(C(=O)O)cc2)cc1 [Compound 29]	completely lose inhibitory activities
c1ccc(-c2ccc(OCC3CCNCC3)cn2)cc1 [Compound 3]	inactive
C#Cc1ccc(-c2cc(OCC3CCNCC3)cnc2-c2ccc(C)cc2)cc1 [Compound 28]	activity loss
Cc1ccc(-c2ncc(OCc3ccccc3)cc2-c2ccc(C#N)cc2)cc1 [Compound 45]	Loss of activity
Cc1ccc(-c2ncc(O)cc2-c2ccc(C#N)cc2)cc1 [Compound 44]	Loss of activity

Same assay, conditions: Ki ratio to compound 17

Structure (SMILES)	fold less active against LSD1 than compound 17
C#Cc1ccc(-c2cc(OCC3CCNCC3)cnc2-c2ccc(C)cc2)cc1 [Compound 28]	> 1,700 fold
